“Also recorded” adds a separate entry of the source.
Tests used:
[1] = test system: naïve splenic BALB/c B cells; assay: Flow cytometry: APC-labeled tetramer staining of BALB/c splenic B cells; format: cell-based, mouse (BALB/c)
Method: (§1) N-biotinylated, linker/spacer-containing peptides used to make tetramers are detailed in Table S4 and Fig. 7A. Peptides were synthesized and purified using reverse-phase HPLC (Primm Biotechnology). To produce tetramerized forms of each peptides, 200 µM peptide and 6 µM APC-labeled streptavadin (SA) were combined at equal volumes, and mixtures were incubated at 4°C for 4 h. Unbound peptide was removed from peptide-APC complexes by centrifugal filtration using an Amicon Centriprep YM30 column (Millipore Corporation). Purified tetramer preparations were determined using the Micro BSA protein assay kit (Pierce Biotechnology).
(§2) FACS staining of single cell suspensions (≥2×10^6) was conducted using pre-mixed combinations of fluorochrome-labeled Abs and APC-conjugated B cell tetramers at empirically-determined optimal concentrations. All Abs were from BD unless otherwise stated. Primary antibodies used were: PerCP anti-B220, FITC anti-IgD, FITC, PE or PE-Cy7 anti-IgM, PE anti-CD5, FITC anti-CD11b, PE-Cy7 anti-CD19, FITC anti-CD21, PE-Cy7 anti-CD23 (eBiosciences), and PE-Cy7 anti-CD93 (eBiosciences). Other reagents included biotinylated Abs against dump channel markers: Thy1 (Abcam), F4/80 (Abcam), CD11c, Gr-1, TER-119, and NK-1.1, secondary staining SA-Texas Red conjugate; v-amine live/dead violet dye (Molecular Probes), and Fc block (anti-CD16/32).
(§3) Staining was conducted at 4°C in several sequential steps in FACS staining buffer (1X PBS with 2% FCS, 0.1% NaN3), washing twice between steps. Cells were first incubated with v-amine live/dead dye for 15 min, then stained with APC-labeled tetramers for 30 min (and in some experiments, cold tetramer was incubated at 10 fold molar excess for 1 h, prior to staining with APC-labeled tetramers). Cells were then stained with Fc block, followed by incubation with combinations of primary Abs, and secondary staining with SA-Texas Red, each for 30 min. Data (≥2.5×10^5 events/sample) were acquired using an LSRII flow cytometer and Cell Quest software (BD Immunocytometry systems). FACS Analysis was performed using FlowJo software (Tree Star). For analysis, cells were gated in the following order: single cells were gated based on fsc height vs. fsc area+ssc height vs. ssc profiles, lymphocytes were gated on fsc and ssc profile, residual dead cells were excluded by negative gating with v-amine live/dead dye, and irrelevant non-B cells were excluded by negative gating with dump markers.

[2] = test system: naïve splenic C57BL/6 B cells; assay: Flow cytometry: APC-labeled tetramer staining of C57BL/6 splenic B cells; format: cell-based, mouse (C57BL/6)
Method: as §1, §2
as §3, with “For analysis, cells were gated in the following order: single cells were gated based on fsc height vs. fsc area+ssc height vs. ssc profiles, lymphocytes were gated on fsc and ssc profile, residual dead cells were excluded by negative gating with v-amine live/dead dye, and irrelevant non-B cells were excluded by negative gating with dump markers.” left out

[3] = test system: splenic B cells, C57BL/6 congenic (IgH^a); assay: Flow cytometry: tetramer staining of splenic B cells from C57BL/6 congenic (IgH^a) mice; format: cell-based, mouse (B6Igh^a); conditions: C57BL/6 mice homozygous for Igh^a; Fig. 5
Method: as §1
Female C57BL/6, BALB/c, B6Igh^a, and CB17 (BALBc Igh^b) inbred mouse strains (8–12 wks of age) were purchased from Charles River Laboratories. All mice were housed in the Duke University Animal Facility in a pathogen-free environment with 12 h light/dark cycles at 20–25°C under AALAC guidelines and in accordance with all Institutional Animal Care and Use Committee and Duke University Institutional Biosafety Committee-approved animal protocols. […]
FACS staining of single cell suspensions (≥2×10^6) was conducted using pre-mixed combinations of fluorochrome-labeled Abs and APC-conjugated B cell tetramers at empirically-determined optimal concentrations. […]

[4] = test system: surface Ig on BALB/c splenic B cells; assay: Microscopy of BCR cap formation (co-capping); format: cell-based, mouse (BALB/c); conditions: anti-Ig stimulation, Fig. 4F
Method: Purified naïve splenic B cells were incubated on ice for 30 min with Alexa 488-labeled wheat germ agglutinin (Invitrogen) and 10 µg/ml R-PE-labeled goat anti-mouse IgM+IgG (H+L) F(ab)2 and APC-labeled gp41 MPER. After extensive washing, cells were stimulated for indicated times. Images were acquired with a Nikon TE2000-E2 inverted microscope employing a 40X magnification lens from a CoolSNAPPHQ2 monochrome camera.

[5] = test system: phosphorylated Erk in BALB/c splenic B cells; assay: Intracellular FACS of phosphorylated Erk1/2; format: cell-based, mouse (BALB/c); conditions: naïve BALB/c splenocytes; gated on ligated B cells; Fig. 8B
Method: Splenocyte suspensions were incubated at 37°C for various times with either APC-labeled F(ab)'2 anti-IgM (Jackson ImmunoResearch) or APC-labeled gp41 MPER tetramers. Stimulations were stopped by the addition of PhosFlow Lyse/Fix buffer (BD) and incubation for 10 min at 37°C. Cells were stained with B220-FITC prior to permeabilization with PhosFlow Perm Buffer III (BD). Permeabilized cells were stained with a PE-labeled Ab to Erk1 and Erk2 (BD), according to the manufacturer's instructions. Cells were fixed with 2% paraformaldehyde, and all data were collected and analyzed as done for standard flow cytometry.

In the case of “QQEKNEQELLELDKWASLWN [gp41 MPER tetramer, (residues 659–678 of the HIV-1 envelope)]”, the “MFI binding pattern (in words)” value ([1]; BALB/c B cell subsets, Fig. 1A, 2A, Table S1) is reported as “the majority of MPER-reactive B cells within BALB/c subsets shifted as “low avidity” shoulders, with an additional, small fraction binding as a “higher-avidity” MFI tail”, the “gp41 MPER reactivity among B cell subsets (in words)” value ([1]; BALB/c splenic and peritoneal subsets, MFI and frequency, Fig. 2, Tables S1, S2) is reported as “gp41 MPER reactivity was strongest in marginal zone (MZ) and peritoneal B1 B cell subsets of BALB/c mice; also recorded: exhibited lower levels of gp41 MPER binding” and the “fraction of all B cells labeled at saturating tetramer” value ([1]; BALB/c splenocytes, 10 µg/10^6 splenocytes, Fig. 1B) is reported as ~25%. For the same sequence, the “tetramer amount giving saturating binding” value ([1]; BALB/c splenocytes, Fig. 1B) was 10 µg/10^6 splenocytes, the “tetramer amount with highest gp41 MPER/scrambled gp41 MPER binding ratio” value ([1]; BALB/c splenocytes, sub-saturating, Fig. 1B) was 100 ng/10^6 splenocytes and the “frequency of binding to BALB/c B cells” value ([1]; high-frequency binding, 100 ng tetramer/10^6 cells) was ≥ 5%. For the same sequence, the “gp41 MPER binding over wide tetramer concentration range (in words)” value ([1]; serial dilutions, MFI and fraction of labeled B cells, Fig. 1B) was “Elevated gp41 MPER binding to BALB/c cells, relative to C57BL/6 B cells, was observed at all concentrations of tetramers carrying MPER peptide; also recorded: substantially elevated relative to the scrambled peptide controls”, the “percentage of tetramer-reactive B cells” value ([1]; total splenic B cells (CD19^+), naïve BALB/c, APC tetramer 100 ng/10^6 splenocytes, above background without tetramer, Fig. 1A representative histogram) was ~7% and the “MFI binding pattern (in words)” value ([2]; C57BL/6 B cells, Fig. 1A, 1C) was “gp41 MPER-reactive C57BL/6 B cells scattered further out across the APC channel”. The “gp41 MPER reactivity among B cell subsets (in words)” value ([2]; C57BL/6 MZ and B1a B cells, Table S2) was “did not reveal increased levels of MPER binding by MZ and B1a B cells”, the “percentage of tetramer-reactive B cells” value ([2]; total splenic B cells (CD19^+), naïve C57BL/6, APC tetramer 100 ng/10^6 splenocytes, above background without tetramer, Fig. 1A representative histogram) was 0.1–0.3% and the “gp41 MPER binding in congenic mice (in words)” value [3] was “exhibited gp41 MPER binding identical to BALB/c animals”. The “co-capping with surface Ig (in words)” value [4] was “co-capped with surface Ig in BALB/c splenic B cells” and the “Erk phosphorylation (in words)” value [5] was “detectable, but dampened induction of phosphorylated Erk; also recorded: peak gp41 MPER-induced Erk phosphorylation persisted at 30 min; also recorded: the entire population of gp41 MPER-gated B cells showed modest Erk activation”.
